Legend:
Conditions in all cases: exposure time: 72 h
[1] = test system: E13 (patient-derived glioblastoma stem cells of classical subtype); assay: surviving fraction (nuclei count normalised to DMSO); higher = more cells surviving (less toxic)
[2] = test system: E21 (patient-derived glioblastoma stem cells of mesenchymal subtype); assay: as above
[3] = test system: E28 (patient-derived glioblastoma stem cells of classical subtype); assay: as above
[4] = test system: E31 (patient-derived glioblastoma stem cells of proneural subtype); assay: as above
[5] = test system: E34 (patient-derived glioblastoma stem cells of proneural subtype); assay: as above
[6] = test system: E57 (patient-derived glioblastoma stem cells of mesenchymal subtype); assay: as above
[7] = test system: FT3469 (normal neural stem cell line); assay: as above
[8] = test system: E13; assay: phenotypic distance (Euclidean, principal components) from DMSO controls (arbitrary units); higher = stronger morphological change
[9] = test system: E21; assay: as above
[10] = test system: E28; assay: as above
[11] = test system: E31; assay: as above
[12] = test system: E34; assay: as above
[13] = test system: E57; assay: as above
[14] = test system: FT3469; assay: as above
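Throughout, for phenotypic distance (Euclidean, principal components) from DMSO controls: cell Painting imaging in 384-well plates, CellProfiler features reduced to at least 20 principal components, Euclidean distance versus same-plate DMSO vehicle wells (0.1% v/v), median over six images per well.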
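Throughout, for surviving fraction (nuclei count normalised to DMSO): nuclei counted by high-content imaging of Hoechst-stained cells in laminin-coated 384-well plates, relative to 0.1% DMSO vehicle wells, with staurosporine as cell-death control.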

COc1cccc2c(NCc3ccccc3)nc(-n3c(N)nc4ccccc43)nc12 [ML240]
Conditions	phenotypic distance	surviving fraction
[1], 4.1 nM	–	1.1
[1], 12.3 nM	–	0.999
[1], 37 nM	–	1.1
[1], 111.1 nM	–	1.02
[1], 333.3 nM	–	0.985
[1], 1000 nM	–	0.147
[1], 3000 nM	–	0.00521
[2], 4.1 nM	–	1.05
[2], 12.3 nM	–	1.01
[2], 37 nM	–	1.02
[2], 111.1 nM	–	1.1
[2], 333.3 nM	–	1.03
[2], 1000 nM	–	1.11
[2], 3000 nM	–	0.0028
[3], 4.1 nM	–	1.09
[3], 12.3 nM	–	0.996
[3], 37 nM	–	1.01
[3], 111.1 nM	–	1.17
[3], 333.3 nM	–	1.03
[3], 1000 nM	–	0.32
[3], 3000 nM	–	0.0108
[4], 4.1 nM	–	0.934
[4], 12.3 nM	–	1.36
[4], 37 nM	–	1.1
[4], 111.1 nM	–	1.17
[4], 333.3 nM	–	1.19
[4], 1000 nM	–	0.0987
[4], 3000 nM	–	0
[5], 4.1 nM	–	1.18
[5], 12.3 nM	–	1.12
[5], 37 nM	–	1.04
[5], 111.1 nM	–	1.05
[5], 333.3 nM	–	1.18
[5], 1000 nM	–	0.54
[5], 3000 nM	–	0.00732
[6], 4.1 nM	–	0.984
[6], 12.3 nM	–	0.993
[6], 37 nM	–	1.05
[6], 111.1 nM	–	0.972
[6], 333.3 nM	–	1.08
[6], 1000 nM	–	0.255
[6], 3000 nM	–	0.00471
[7], 4.1 nM	–	0.963
[7], 12.3 nM	–	1.03
[7], 37 nM	–	1.15
[7], 111.1 nM	–	1.33
[7], 333.3 nM	–	1.25
[7], 1000 nM	–	0.68
[7], 3000 nM	–	0.00884
[8], 4.1 nM	0.694	–
[8], 12.3 nM	0.435	–
[8], 37 nM	0.787	–
[8], 111.1 nM	0.753	–
[8], 333.3 nM	0.67	–
[8], 1000 nM	8.35	–
[8], 3000 nM	10.2	–
[9], 4.1 nM	0.814	–
[9], 12.3 nM	0.418	–
[9], 37 nM	0.532	–
[9], 111.1 nM	0.655	–
[9], 333.3 nM	0.51	–
[9], 1000 nM	1.08	–
[9], 3000 nM	13.5	–
[10], 4.1 nM	0.413	–
[10], 12.3 nM	0.802	–
[10], 37 nM	0.589	–
[10], 111.1 nM	0.977	–
[10], 333.3 nM	0.531	–
[10], 1000 nM	5.33	–
[10], 3000 nM	7.6	–
[11], 4.1 nM	0.647	–
[11], 12.3 nM	0.799	–
[11], 37 nM	0.394	–
[11], 111.1 nM	0.491	–
[11], 333.3 nM	0.297	–
[11], 1000 nM	6.73	–
[11], 3000 nM	18.7	–
[12], 4.1 nM	0.596	–
[12], 12.3 nM	0.636	–
[12], 37 nM	0.602	–
[12], 111.1 nM	0.587	–
[12], 333.3 nM	0.358	–
[12], 1000 nM	1.49	–
[12], 3000 nM	14.2	–
[13], 4.1 nM	0.375	–
[13], 12.3 nM	0.566	–
[13], 37 nM	0.385	–
[13], 111.1 nM	0.473	–
[13], 333.3 nM	1.84	–
[13], 1000 nM	4.85	–
[13], 3000 nM	6.71	–
[14], 4.1 nM	0.656	–
[14], 12.3 nM	0.706	–
[14], 37 nM	0.538	–
[14], 111.1 nM	1.16	–
[14], 333.3 nM	0.736	–
[14], 1000 nM	1.85	–
[14], 3000 nM	11.7	–

CC(C)C[C@H](NC(=O)CNC(=O)c1cc(Cl)ccc1Cl)B1OC(=O)C(CC(=O)O)(CC(=O)O)O1 [MLN9708]
Conditions	phenotypic distance	surviving fraction
[1], 4.1 nM	–	0.0208
[1], 12.3 nM	–	0.00954
[1], 37 nM	–	0.0104
[1], 111.1 nM	–	0.00174
[1], 333.3 nM	–	0.00347
[1], 1000 nM	–	0.00607
[1], 3000 nM	–	0.000868
[2], 4.1 nM	–	0.0299
[2], 12.3 nM	–	0.0187
[2], 37 nM	–	0.0103
[2], 111.1 nM	–	0.0103
[2], 333.3 nM	–	0.0084
[2], 1000 nM	–	0.00373
[2], 3000 nM	–	0.000933
[3], 4.1 nM	–	0.244
[3], 12.3 nM	–	0.239
[3], 37 nM	–	0.158
[3], 111.1 nM	–	0.0898
[3], 333.3 nM	–	0.0988
[3], 1000 nM	–	0.0719
[3], 3000 nM	–	0.0719
[4], 4.1 nM	–	0.082
[4], 12.3 nM	–	0.0803
[4], 37 nM	–	0.0151
[4], 111.1 nM	–	0.00335
[4], 333.3 nM	–	0.00669
[4], 1000 nM	–	0.00335
[4], 3000 nM	–	0.00669
[5], 4.1 nM	–	0.307
[5], 12.3 nM	–	0.293
[5], 37 nM	–	0.123
[5], 111.1 nM	–	0.0439
[5], 333.3 nM	–	0.064
[5], 1000 nM	–	0.0421
[5], 3000 nM	–	0.0549
[6], 4.1 nM	–	0.0256
[6], 12.3 nM	–	0.0162
[6], 37 nM	–	0.011
[6], 111.1 nM	–	0.00523
[6], 333.3 nM	–	0.00523
[6], 1000 nM	–	0.00366
[6], 3000 nM	–	0.0105
[7], 4.1 nM	–	0.412
[7], 12.3 nM	–	0.492
[7], 37 nM	–	0.439
[7], 111.1 nM	–	0.445
[7], 333.3 nM	–	0.306
[7], 1000 nM	–	0.156
[7], 3000 nM	–	0.212
[8], 4.1 nM	9.36	–
[8], 12.3 nM	9.93	–
[8], 37 nM	9	–
[8], 111.1 nM	12.2	–
[8], 333.3 nM	10.8	–
[8], 1000 nM	10.1	–
[8], 3000 nM	16.2	–
[9], 4.1 nM	7.66	–
[9], 12.3 nM	7.71	–
[9], 37 nM	11.9	–
[9], 111.1 nM	7.64	–
[9], 333.3 nM	11.8	–
[9], 1000 nM	11.7	–
[9], 3000 nM	15.7	–
[10], 4.1 nM	3.84	–
[10], 12.3 nM	3.91	–
[10], 37 nM	4.06	–
[10], 111.1 nM	7.19	–
[10], 333.3 nM	5.5	–
[10], 1000 nM	5.6	–
[10], 3000 nM	6.86	–
[11], 4.1 nM	5.67	–
[11], 12.3 nM	7.74	–
[11], 37 nM	9.26	–
[11], 111.1 nM	14.5	–
[11], 333.3 nM	11.4	–
[11], 1000 nM	13	–
[11], 3000 nM	12.3	–
[12], 4.1 nM	5.41	–
[12], 12.3 nM	6.29	–
[12], 37 nM	7.18	–
[12], 111.1 nM	10.9	–
[12], 333.3 nM	8.93	–
[12], 1000 nM	12.6	–
[12], 3000 nM	10.5	–
[13], 4.1 nM	11.8	–
[13], 12.3 nM	12.3	–
[13], 37 nM	11.3	–
[13], 111.1 nM	10.8	–
[13], 333.3 nM	14.4	–
[13], 1000 nM	8.37	–
[13], 3000 nM	8.49	–
[14], 4.1 nM	3.13	–
[14], 12.3 nM	3.57	–
[14], 37 nM	5.22	–
[14], 111.1 nM	6.65	–
[14], 333.3 nM	7.14	–
[14], 1000 nM	7.83	–
[14], 3000 nM	8.15	–

— the supplement of paper PMC13207355
